According to publication PMC8313282 (Microbial Biotechnology, 2021):

Biological target: T1, YHR112C (Saccharomyces cerevisiae, UniProt P38716)
T1 sequence (P38716 1-378): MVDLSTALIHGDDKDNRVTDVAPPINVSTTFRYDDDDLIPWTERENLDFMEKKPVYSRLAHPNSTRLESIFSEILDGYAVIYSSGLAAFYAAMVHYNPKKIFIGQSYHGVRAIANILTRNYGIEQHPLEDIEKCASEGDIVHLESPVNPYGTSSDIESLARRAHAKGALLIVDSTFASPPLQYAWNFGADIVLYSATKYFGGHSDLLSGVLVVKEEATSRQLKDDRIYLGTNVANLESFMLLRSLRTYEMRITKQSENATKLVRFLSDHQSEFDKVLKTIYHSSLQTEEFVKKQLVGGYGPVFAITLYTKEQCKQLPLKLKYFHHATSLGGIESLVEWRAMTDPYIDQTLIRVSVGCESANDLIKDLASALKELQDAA
Assay: HPLC of L-Met depletion and alpha-ketobutyrate
Type: biochemical
Settings: 50 mM Tris-HCl pH 8.0; 20 mM L-Met; 5 μM PLP; 30°C; 1 h; weak activity

CSCC[C@H](N)C(=O)O [L‐Met]
HPLC of L-Met depletion and alpha-ketobutyrate: while weak changes were observed for YHR112C
